Results reported in patent publication US5994402A, “Anti-inflammatory and anti-pyretic method” (priority 1997, dated 1999).

Columns and labels:
[1] = tested on: cerebral ischemia-reperfusion injury; conditions: literature; cited from earlier work
[2] = tested on: lung permeability after intratracheal LPS; test: LPS-induced lung injury: lung permeability index (transcapillary 125I-albumin flux); format: in vivo, male Sprague Dawley rats; conditions: for Lung PI (t = 4 hrs): LPS +, mean ± SEM
Method: (§1) Male Sprague Dawley rats weighing 250-275 g were obtained from Charles River Laboratories (Constante, Quebec). All animal studies were performed in accordance with guidelines set forth by the Toronto Hospital Animal Care Committee and the Canadian Council on Animal Care. Animals were housed in standard wire bottom cages, fed standard rat chow and water ad libitum and were allowed to acclimatize before use. Prior to experimentation, animals were fasted overnight and anesthetized with intraperitoneal sodium pentobarbital (50 mg/kg). A tracheostomy was performed and 0.5 ml of saline containing […] of lipopolysaccharide was instilled followed by 20 mechanically ventilated breaths using a rodent ventilator. Sham animals received 0.5 ml of saline alone. Animals were maintained at 37° C. with the use of warming blankets until recovery from anaesthesia.
(§2) For examples 11 to 17, systemic GSH depletion in animals was accomplished by administering various doses of DEM or phorone by intraperitoneal injection following an overnight fast
At the end of the experimental protocol, rats were ventilated, heparin (100 U) was injected into the right ventricle, and 1 ml of blood was withdrawn by cardiac puncture. Following exsanguination, lungs were perfused blood-free by cannulating the pulmonary artery and infusing 10 ml of a low-potassium dextran solution containing 0.5 mg/L of PGE1. The left ventricle, left atria and mitral valve were opened widely to allow free drainage of effluent. The right lung was immediately frozen in liquid nitrogen for assay of non-protein thiols and ICAM-1 and TNF-a mRNA expression, myeloperoxidase activity, as described below. The left lung was used to calculate a permeability index (PI) as follows: [formula] Thioglycollate-induced Peritonitis

lung GSH = test: Lung glutathione / non-protein thiol assay (DTNB); format: in vivo, male Sprague Dawley rats; conditions: for Lung GSH (t = 4 hrs): LPS +, mean ± SEM
Method: as §1, §2
(§3) Quantitation of total lung and endothelial non-protein sulfhydryls (NPSH) was assessed using a DTNB based assay as described by Jocelyn. Lung tissue was thawed and weighed, and approximately 0.25 gm was homogenized in 2 ml of 5% SSA. The homogenate was sonicated for 30 seconds and centrifuged for 10 minutes at 10 000 g. The resultant acid thiol extract was assayed for NPSH by quantitating the reduction of DTNB through its conversion to 5-thio-2-nitrobenzoic acid (TNB) at 412 nm using a spectrophotometer. Sample values were then calculated from a standard curve generated using known amounts of GSH and are expressed as GSH equivalents per gram of lung tissue.
Quantitation of lung non-protein sulfhydryls (NPSH) was assessed using a DTNB based assay as described by Jocelyn ^17. Lung tissue was thawed and weighed, and approximately 0.25 gm was homogenized in 2 ml of 5% SSA. The homogenate was sonicated for 30 seconds and centrifuged for 10 minutes at 10 000 g. The resultant acid thiol extract was assayed for NPSH by quantitating the is reduction of DTNB through its conversion to 5-thio-2-nitrobenzoic acid (TNB) at 412 nm using a spectrophotometer. Sample values were then calculated from a standard curve generated using known amounts of GSH and are expressed as GSH equivalents per gram of lung tissue.

RHEC = test: Cytotoxicity to RHEC (LDH, trypan blue, monolayer integrity); format: cell-based, rat; conditions: for supernatant lactate dehydrogenase activity: DEM, mean ± SEM
From the text: To determine whether the reduction in ICAM-1 expression was a direct effect of DEM, we attempted to recapitulate the effect in vitro using rat heart endothelial cells (RHEC) activated by either LPS or TNF-a.
(§4) ICAM-1 is expressed on a number of cells present in the lung including endothelial cells, macrophages, neutrophils and alveolar epithelial cells {3224}. Since DEM served to reduced PMN sequestration In the lung, we hypothesized that an effect on endothelial cell ICAM-1 expression might be responsible. To test this possibility, we modeled the system in vitro using RHEC activated by either LPS or TNF-a. […] To determine whether the effect of GSH depletion on ICAM-1 expression was species specific, this parameter was similarly evaluated in HUVEC.
Endothelial cells were isolated from the hearts of 5-day old rats according to the method of Kasten ^22 and allowed to grow to confluence. For experiments 11 to 17, human umbilical vein endothelial cells (HUVEC) were isolated as previously described. The endothelial cells were harvested using trypsin-EDTA treatment and seeded into 96 well, flat bottomed microtitre plates in minimal essential medium with 20% fetal calf serum. When the monolayers had reached confluence (approximately 4 days) cells were pretreated with diethylmaleate for 30 minutes followed by activation with either LPS or TNF-a. After 6 hours, supernatants were collected for measurement of lactate dehydrogenase (LDH) activity. Cells were washed twice with RPMI/5% fetal calf serum and incubated with mouse anti-rat ICAM-1 mAb for 1 hour, washed, and then incubated with peroxidase-conjugated goat anti-mouse IgG for 1 hour. Cells were washed again and color development initiated by the addition of the substrate, o-phenyidiamine hydrochloride. After 18 minutes, the reaction was stopped with 3 M sulfuric acid and the optical density at 492 nm determined using a microtitre plate reader. Data are expressed as the change in absorption from baseline. Quantitation of supernatant LDH activity as a measure of cytotoxicity was determined using spectrophotometric methods as previously described ^23.

[3] = tested on: antigen-induced arthritis; test: Antigen-induced arthritis (AIA); format: in vivo, Lewis rats; conditions: DEM 6 mmole/kg ip 1 h prior to antigen; 3+ without DEM
Method: We examined the effect of intracellular thiol depletion in antigen-induced arthritis (AIA) with the administration of diethylmaleate (DEM) which is known to deplete glutathione. AIA was induced by sensitizing Lewis rats with 2 subcutaneous injections of methylated bovine serum albumin (1 mg/ml), then administering an intra-articular injection of mBSA.

[4] = tested on: skin vascular permeability; test: LPS dermal inflammation: skin permeability index; format: in vivo, Swiss Webster mice; conditions: for PI (mean ± SEM): 24 h
Method: Swiss Webster mice were injected intradermally with saline or LPS (30 μg) with or without ip DEM or vehicle. Injection sites were harvested after 24 hours and evaluated for change in vascular permeability, using I^125 -labelled albumin and for levels of ICAM-1 mRNA (Table III).

[5] = tested on: intracellular GSH levels in RHEC; test: Intracellular GSH in RHEC; format: cell-based, rat; conditions: DEM 250 mM (so in the source)
From the text: as §4, §3

[6] = tested on: kidney transplant recipients; test: Kidney transplant survival; format: in vivo, black 6 mouse donor to C3H mouse; conditions: DEM 6 mmol/kg to donor and recipient; some mice
From the text: A kidney from a black 6 mouse was transplanted into a C3H mouse in a sample of ten test mice and ten control mice. This is a major mismatch. In the test group, donors were given a single injection of DEM (6mmol/kg) immediately prior to the harvest of the kidney. Recipient mice received a single dose prior to insertion of the kidney. No other agents were used. In the control group, donors and recipients were not given an injection of DEM.

[7] = phorone 250 mg/kg ip 1 h prior to LPS

In the case of `CCCCS(=N)(=O)CCC(N)C(=O)O` (stereo not shown) [BSO, buthionine sulfoximine], the “mortality following cerebral ischemia-reperfusion injury” value [1] is given as “reduced mortality”.

For `CCOC(=O)/C=C\C(=O)OCC` [DEM, diethylmaleate], the “Lung PI (t = 4 hrs)” value ([2]; DEM injected at -1 h) was 0.06 ± 0.02, the “Lung PI (t = 4 hrs)” value ([2]; DEM injected at -3 h) was 0.09 ± 0.02 and the “Lung GSH (t = 4 hrs)” value (lung GSH; DEM injected at 0 h) was 278 ± 18. The “Lung GSH (t = 4 hrs)” value (lung GSH; DEM injected at +2 h) was 361 ± 16, the “Lung GSH (t = 4 hrs)” value (lung GSH; DEM injected at -1 h) was 185 ± 48 and the “Lung GSH (t = 4 hrs)” value (lung GSH; DEM injected at -3 h) was 591 ± 118. For the same compound, the “cell viability (trypan blue exclusion)” value (RHEC; RHEC) was “did not affect cell viability”, the “integrity of the cell monolayer” value (RHEC; RHEC) was “nor alter the integrity of the cell monolayer” and the “supernatant lactate dehydrogenase levels” value (RHEC; RHEC) was “unaffected”. The “supernatant lactate dehydrogenase activity” value (RHEC; RHEC treatment: LPS (1 mg/ml)) was 33.0 ± 4.0 U/L, the “supernatant lactate dehydrogenase activity” value (RHEC; RHEC treatment: TNF-a (100 ng/ml)) was 33.5 ± 2.5 U/L and the “supernatant lactate dehydrogenase activity” value (RHEC; RHEC treatment: control) was 32.5 ± 3.5 U/L. The quantitative histopathology score [3] was 0, the “skin permeability index, DEM alone” value ([4]; DEM alone) was “no effect” and the “PI (mean ± SEM)” value ([4]; LPS id + DEM 3 mmol/kg ip) was 4.03 ± 0.43. The “PI (mean ± SEM)” value ([4]; LPS id + DEM 6 mmol/kg ip, p < 0.001 vs LPS) was 0.84 ± 0.28, the “reduction in intracellular GSH levels” value [5] was “≈ 75%” and the “intracellular GSH levels” value ([5]; No DEM: 6.74±0.08, p<0.01) was 1.66±0.1 nmoles/106 cells. It also gave a survival of recipients [6] of 40 to 50 days.

With `CC(C)=CC(=O)C=C(C)C` [Phorone, diisopropylidene acetone] the “LPS-induced increase in lung permeability” value [2, 7] was “almost complete prevention of the increase in lung permeability” and the “reduction in lung GSH levels” value (lung GSH; [7]) was “comparable reduction in lung GSH levels”.
